Patent publication US9937192B2, “Combination therapy to treat mycobacterium diseases” (priority 2012, dated 2018)
≈ marks a conversion by molar mass, not a printed value. Read-outs that look alike come from different tables or passages of the source.

Legend:
[1] = tested on: intracellular M. tuberculosis in J774 cells; test: Efficacy against intracellular M. tuberculosis (luciferase) in J774 cells; assay type: cell-based
[2] = tested on: nonreplicating M. tuberculosis; test: Low-Oxygen-Recovery Assay (LORA) MIC; assay type: cell-based; details: Mycobacterium tuberculosis, read-out: LORA MIC
Source text: MIC Determination in the Low-Oxygen-Recovery Assay (LORA) for Nonreplicating M. tuberculosis
Screening for new antimicrobial agents is routinely conducted only against actively replicating bacteria. However, it is now widely accepted that a physiological state of non-replicating persistence (NRP) is responsible for antimicrobial tolerance in many bacterial infections. In tuberculosis, the key to shortening the 6-month regimen lies in targeting this NRP subpopulation. […] Cho S H, Want S, Wan B, Hwang C H, Pauli G F, Franzblau S G; “Low-Oxygen-Recovery Assay for High-Throughput Screening of Compounds against Nonreplicating Mycobacterium tuberculosis” Antimicrob Agents Chemother. 2007 April; 51(4): 1380-1385 doi: 10.1128/AAC.00055-06.

[3] = tested on: intracellular M. tuberculosis in THP-1 cells; test: microbe, parasite or virus in culture; assay type: cell-based; details: Mycobacterium tuberculosis, H37RA; for IC50: THP-1, 120 h, read-out: Mtb H37Ra in THP1 Cells (IC50); for MIC: read-out: MIC, Macrophage Cells
M. tuberculosis = test: microbe, parasite or virus in culture; assay type: cell-based
M. tuberculosis H37Rv [4] = test: Monotherapy against established TB in mice (dose-ranging activity study); assay type: in vivo; details: BALB/c mice, M. tuberculosis H37Rv, 150 mg/kg daily 5 days per week
M. tuberculosis H37Rv [5] = details: cited from earlier work
[6] = Rat IV Study (pharmacokinetics); details: male Sprague Dawley rats, plasma analyte = label
[7] = Oral Range Finding Toxicity and Toxicokinetic Study in Male Cynomolgus Monkeys; assay type: in vivo, Cynomolgus monkeys (Macaca Fascicularis)
Procedure: An Oral Range Finding Toxicity and Toxicokinetic Study in Male Cynomolgus Monkeys
The first day of dosing was designated as Day 1 of the study. The actual volume administered to each animal was calculated and adjusted based on the most recent body weight of each animal.
Cage-side clinical signs (ill health, behavioral changes etc.) were recorded at least once daily during the study.
Body weights were recorded for all animals prior to group assignment and on Days 1 (prior to dosing), 3 and 7 as well as terminally prior to necropsy (fasted).
Electrocardiograms (bipolar limb leads I, II and III, and augmented unipolar leads aVR, aVL and aVF) were obtained for all monkeys once during the pre-treatment period and again on Day 7 (post-dosing).
The tracings were assessed for gross changes indicative of cardiac electrical dysfunction. The potential presence of abnormalities involving heart rate (lead II), sinus and atrioventricular rhythm or conductivity were determined. Heart rate, PR interval, QRS duration, QT and QTc intervals values were measured.
A series of 7 blood samples (approximately 0.5 mL each) were collected from each monkey on Days 1 and 7 at the following time points: predose, 30 minutes and 2, 3, 6, 12 and 24 hours post-dose. For this purpose, each monkey was bled by venipuncture and the samples were collected into tubes containing the anticoagulant, K2EDTA. Tubes were placed on wet ice until ready for processing.
Laboratory investigations (hematology, coagulation, clinical chemistry and urinalysis) were performed on all animals prior to start of treatment and prior to termination on Day 8.
A necropsy with tissue collection was conducted on all animals terminated during the study. The necropsy included examination of: • carcass and muscular/skeletal system; • all external surfaces and orifices; • cranial cavity and external surface of the brain; • neck with associated organs and tissues; and • thoracic, abdominal, and pelvic cavities with their associated organs and tissues. All abnormalities were described and recorded.
For all animals, all tissues indicated above were embedded in paraffin, sectioned and stained with hematoxylin and eosin and examined by light microscopy.

Aqueous Solubility Study = assay type: physicochemical; details: water, aqueous buffer, thermodynamic from solid, crystalline solid form, pH >3.0, 96 hours at room temperature
Procedure: The aqueous solubilities of compound 23 and compound W were determined according to the following procedure.
Aqueous samples of each compound were prepared as follows. Compounds were weighed (20-30 mg compound) in 4 ml clear vials prior to adding water (0.5 mL) and stirring by magnetic stirrer. 1.0N HCl was added to the suspension to adjust the pH to the desired range. After stirring for 96 hours at room temperature, the suspension was filtered through a 0.22 micron filter (Millipore, Ultrafree centrifugal filters, Durapore PVDF 0.22 μm, Cat# UFC30GVNB). The filtrate was collected and the pH measured with a pH meter.
Standard solutions of each compound were prepared according to the following procedure. […]
Aliquots of each sample and each standard solution were analyzed by HPLC analysis (Agilent 1100, injection volume 10 μL, wavelength 271 nm, column XTerra® Phenyl 5 μm, 4.6×50 mm, Part No. 186001144, mobile phase: A: 0.1% TFA in water 0.1% TFA in AcN). […] Standard curves were obtained by plotting the average of the peak area from the HPLC versus the concentrations of the standard solutions (with appropriate corrections of the weights of the standards based on total water content of the solid as determined by elemental analysis). The concentration of each sample was calculated from the peak area of the aqueous sample from the HPLC results and the slope and intercept of the standard curves. […]

M. tuberculosis Erdman = test: MBC assay, log killing reduction in CFU over a one month period of incubation (Table 35); assay type: cell-based; details: Compound 23A at 4×MIC
M. kansasii = test: MIC in bacterial broth culture (7H9 with ADC, visual or resazurin); assay type: cell-based; details: Mycobacterium kansasii, Table 31, duplicate values
[8] = tested on: Non-Replicating (NRP) M. tuberculosis H37Ra; test: Non-replicating (NRP) M. tuberculosis H37Ra (luciferase) culture assay; assay type: cell-based; details: Mycobacterium tuberculosis, 336 h, read on day 14
[9] = Mycobacterium tuberculosis, H37RA, read-out: MIC, Broth
[10] = Compound W dosed IV bolus 1 mg/kg in D5W
[11] = Compound W dosed IV bolus 5 mg/kg in D5W
[12] = doses up to 200 mg/kg/day for 7 days

COc1c(N2CCNC(C)C2)c(F)cc2c(=O)c(C(=O)O)cn(C3CC3)c12 (centres unmarked) [Gatifloxacin, 1-cyclopropyl-6-fluoro-8-methoxy-7-(3-methylpiperazin-1-yl)-4-oxo-quinoline-3-carboxylic acid]
IC50 ([1]; Mycobacterium tuberculosis, J774, 120 h, read-out: Mtb CDC1551 in J774 Cells (IC50)): 0.94 µg/mL (≈ 2.5 µM) | MIC [2]: 3.6 µg/mL (≈ 9.59 µM) | IC50 [3]: 0.2 µg/mL (≈ 0.533 µM) | Erdman (MIC) (M. tuberculosis): 0.25 µg/mL

NC(=O)c1cnccn1 [Pyrazinamide, pyrazine-2-carboxamide]
Log cfu (lung) (M. tuberculosis H37Rv [4]; 4 weeks of treatment): 4.22 | Log Reduction (M. tuberculosis H37Rv [4]; 4 weeks, vs untreated control): 1.78 | MIC (M. tuberculosis H37Rv [5]; M. tuberculosis H37Rv, normal pH): 250 µg/mL (≈ 2030 µM) | MIC (M. tuberculosis H37Rv [5]; pH 6.0): 50 µg/mL (≈ 406 µM) | MIC [3]: > 2.5 µg/mL | MIC (M. tuberculosis; [9]): > 12.3 µg/mL

CCNC(=O)Nc1nc2cc(-c3cnc(C(C)(C)O)nc3)c(F)c([C@H]3CCCO3)c2[nH]1 [Compound 23, 1-ethyl-3-[6-fluoro-5-[2-(1-hydroxy-1-methyl-ethyl)pyrimidin-5-yl]-7-[(2R)-tetrahydrofuran-2-yl]-1H-benzimidazol-2-yl]urea]
AUCextrap [6, 10]: 310 ng·h/mL | Cl_obs [6, 10]: 54.9 mL/min/kg | Vss_obs [6, 10]: 3.8 L/kg | AUCextrap [6, 11]: 3060 ng·h/mL | Cl_obs [6, 11]: 27.3 mL/min/kg | Vss_obs [6, 11]: 4.08 L/kg | clinical signs, body weights, electrocardiography, clinical pathology, organ weights [7, 12]: no clinical signs, or changes in body weights, electrocardiography parameters, clinical pathology parameters, or organ weights | macroscopic or microscopic findings [7, 12]: no macroscopic or microscopic findings | no observed effect level (NOEL) ([7]; oral gavage once per day for 7 days): 200 mg/kg/day | exposures for different dosage levels ([7]; toxicokinetics): dose related | solubility at 96 h (Aqueous Solubility Study): < 1 µg/mL

COc1c(N2C[C@@H]3CCCN[C@@H]3C2)c(F)cc2c(=O)c(C(=O)O)cn(C3CC3)c12 [Moxifloxacin, 1-cyclopropyl-7-[(1S,6S)-2,8-diazabicyclo [4.3.0]non-8-yl]-6-fluoro-8-methoxy-4-oxo-quinoline-3-carboxylic acid]
IC50 ([1]; Mycobacterium tuberculosis, J774, 120 h; read-out: Mtb CDC1551 in J774 Cells (IC50)): 0.21 µg/mL (≈ 0.523 µM) | Log Reduction (cfu) (M. tuberculosis Erdman; day 0 of incubation): 0 Log | Log Reduction (cfu) (M. tuberculosis Erdman; day 1 of incubation): 0.4 Log | Log Reduction (cfu) (M. tuberculosis Erdman; day 2 of incubation): 1.6 Log | Log Reduction (cfu) (M. tuberculosis Erdman; day 3 of incubation): 2.8 Log | Log Reduction (cfu) (M. tuberculosis Erdman; day 7 of incubation): 2.2 Log | Log Reduction (cfu) (M. tuberculosis Erdman; day 14 of incubation): 1.4 Log | Log Reduction (cfu) (M. tuberculosis Erdman; day 21 of incubation): 0.0 Log | Log Reduction (cfu) (M. tuberculosis Erdman; day 28 of incubation): 0.2 Log | MIC [2]: > 40 µg/mL | MIC (M. kansasii; M. kansasii 303): 0.03 µg/mL (≈ 0.0747 µM) | MIC (M. kansasii; M. kansasii 316): 0.03 µg/mL (≈ 0.0747 µM) | MIC (M. kansasii; M. kansasii 379): 0.03 µg/mL (≈ 0.0747 µM) | IC50 [3]: 0.33 µg/mL (≈ 0.822 µM) | MIC [3]: 0.33 µg/mL (≈ 0.822 µM) | IC50 [8]: 6 µg/mL (≈ 14.9 µM) | MIC (M. tuberculosis; Mycobacterium tuberculosis, ERDMAN, Table 31, Mtb Erdman, duplicate values, read-out: MIC): 0.03 µg/mL (≈ 0.0747 µM) | MIC (M. tuberculosis; Mycobacterium tuberculosis, ERDMAN, Table 32, M. tuberculosis Erdman, […], duplicate values, read-out: MIC): 0.03 µg/mL (≈ 0.0747 µM) | MIC (M. tuberculosis; Mycobacterium tuberculosis, ERDMAN, Table 33, M. tuberculosis strain Erdman, read-out: MIC): 0.03 µg/mL (≈ 0.0747 µM) | MIC (M. tuberculosis; Mycobacterium tuberculosis, GN9, Table 31, Mtb GN9, duplicate values, read-out: MIC): 0.03 µg/mL (≈ 0.0747 µM) | MIC (M. tuberculosis; Mycobacterium tuberculosis, GN9, Table 33, M. tuberculosis strain GN9, read-out: MIC): 0.03 µg/mL (≈ 0.0747 µM) | MIC (M. tuberculosis; [9]): 0.12 µg/mL (≈ 0.299 µM) | MIC (M. tuberculosis; Mycobacterium tuberculosis, H37RV, Table 31, Mtb H37Rv, duplicate values, read-out: MIC): 0.03 µg/mL (≈ 0.0747 µM) | MIC (M. tuberculosis; Mycobacterium tuberculosis, H37RV, Table 33, M. tuberculosis strain H37Rv, read-out: MIC): 0.06 µg/mL (≈ 0.149 µM) | MIC (M. tuberculosis; Mycobacterium tuberculosis, Table 31, Mtb CDC1551, duplicate values, read-out: MIC): 0.015 µg/mL (≈ 0.0374 µM) | MIC (M. tuberculosis; Mycobacterium tuberculosis, Table 31, Mtb HN878 (Beijing-Type), duplicate values, read-out: MIC): 0.03 µg/mL (≈ 0.0747 µM) | MIC (M. tuberculosis; Mycobacterium tuberculosis, Table 32, […], duplicate values, read-out: MIC): 8 µg/mL (≈ 19.9 µM) | MIC (M. tuberculosis; Mycobacterium tuberculosis, Table 33, M. tuberculosis strain 210, read-out: MIC): 0.015 µg/mL (≈ 0.0374 µM) | MIC (M. tuberculosis; Mycobacterium tuberculosis, Table 33, M. tuberculosis strain AH13, read-out: MIC): 0.5 µg/mL (≈ 1.25 µM) | MIC (M. tuberculosis; Mycobacterium tuberculosis, Table 33, M. tuberculosis strain AH517, read-out: MIC): 0.03 µg/mL (≈ 0.0747 µM) | MIC (M. tuberculosis; Mycobacterium tuberculosis, Table 33, M. tuberculosis strain BW9, read-out: MIC): 0.008 µg/mL (≈ 0.0199 µM) | MIC (M. tuberculosis; Mycobacterium tuberculosis, Table 33, M. tuberculosis strain C913, read-out: MIC): 0.03 µg/mL (≈ 0.0747 µM) | MIC (M. tuberculosis; Mycobacterium tuberculosis, Table 33, M. tuberculosis strain CDC1551, read-out: MIC): 0.03 µg/mL (≈ 0.0747 µM) | MIC (M. tuberculosis; Mycobacterium tuberculosis, Table 33, M. tuberculosis strain H10460, read-out: MIC): 0.25 µg/mL (≈ 0.623 µM) | MIC (M. tuberculosis; Mycobacterium tuberculosis, Table 33, M. tuberculosis strain H13571, read-out: MIC): 0.03 µg/mL (≈ 0.0747 µM) | MIC (M. tuberculosis; Mycobacterium tuberculosis, Table 33, M. tuberculosis strain HH915336, read-out: MIC): 0.015 µg/mL (≈ 0.0374 µM) | MIC (M. tuberculosis; Mycobacterium tuberculosis, Table 33, M. tuberculosis strain LL, read-out: MIC): 0.015 µg/mL (≈ 0.0374 µM) | MIC (M. tuberculosis; Mycobacterium tuberculosis, Table 33, M. tuberculosis strain MC19062, read-out: MIC): 0.015 µg/mL (≈ 0.0374 µM) | MIC (M. tuberculosis; Mycobacterium tuberculosis, Table 33, M. tuberculosis strain Rv ATCC, read-out: MIC): 0.06 µg/mL (≈ 0.149 µM) | MIC (M. tuberculosis; Mycobacterium tuberculosis, Table 33, M. tuberculosis strain W10, read-out: MIC): 0.03 µg/mL (≈ 0.0747 µM) | MIC (M. tuberculosis; Mycobacterium tuberculosis, Table 33, M. tuberculosis strain W33, read-out: MIC): 0.5 µg/mL (≈ 1.25 µM) | MIC (M. tuberculosis; Mycobacterium tuberculosis, Table 33, M. tuberculosis strain Wg565, read-out: MIC): 1 µg/mL (≈ 2.49 µM) | MIC (M. tuberculosis; Table 31, Mtb GN9, duplicate values): 0.015 µg/mL (≈ 0.0374 µM) | MIC (M. tuberculosis; Table 31, Mtb HN878 (Beijing-Type), duplicate values): 0.015 µg/mL (≈ 0.0374 µM) | MIC (M. tuberculosis; Table 32, M. tuberculosis Erdman, […], duplicate values): 0.015 µg/mL (≈ 0.0374 µM) | MIC (M. tuberculosis; Table 32, […], duplicate values): 4 µg/mL (≈ 9.96 µM) | Erdman (MIC) (M. tuberculosis; Table 36, Mtb Erdman, unit inferred): 0.03 µg/mL
